Measured values reported in ChEMBL document CHEMBL1909046, “DrugMatrix in vitro pharmacology data”.

Assays:
[1] = biological target: 5-hydroxytryptamine receptor 6 (Homo sapiens, UniProt P50406); type: cell membranes, HeLa, Membrane; further: in other assays of this panel Not Active means under 50% inhibition at 10 µM
[2] = biological target: Beta-3 adrenergic receptor (Homo sapiens, UniProt P13945); assay: DRUGMATRIX: Adrenergic beta3 radioligand binding (ligand: [125I] Cyanopindolol); type: cell membranes, HEK293, Membrane; conditions: hek293; Not Active = under 50% inhibition at 10 µM
D(3) dopamine receptor = D(3) dopamine receptor (Homo sapiens, UniProt P35462); assay: DRUGMATRIX: Dopamine D3 radioligand binding (ligand: [3H] Spiperone); type: cell membranes, CHO, Membrane
[3] = biological target: Beta-2 adrenergic receptor (Homo sapiens, UniProt P07550); assay: DRUGMATRIX: Adrenergic beta2 radioligand binding (ligand: [3H] CGP-12177); type: cell membranes, Membrane; conditions: cho; Not Active = under 50% inhibition at 10 µM
[4] = DRUGMATRIX: Glutamate, NMDA, Agonism radioligand binding (ligand: [3H] CGP-39653); type: cell membranes, Rattus norvegicus, Wistar, Cerebral cortex, Membrane; conditions: Not Active = under 50% inhibition at 10 µM
[5] = biological target: T1, Type-2 angiotensin II receptor (Homo sapiens, UniProt P50052); type: cell-based; conditions: cho-k1; further: in other assays of this panel Not Active means under 50% inhibition at 10 µM
T1 sequence (P50052 whole entry): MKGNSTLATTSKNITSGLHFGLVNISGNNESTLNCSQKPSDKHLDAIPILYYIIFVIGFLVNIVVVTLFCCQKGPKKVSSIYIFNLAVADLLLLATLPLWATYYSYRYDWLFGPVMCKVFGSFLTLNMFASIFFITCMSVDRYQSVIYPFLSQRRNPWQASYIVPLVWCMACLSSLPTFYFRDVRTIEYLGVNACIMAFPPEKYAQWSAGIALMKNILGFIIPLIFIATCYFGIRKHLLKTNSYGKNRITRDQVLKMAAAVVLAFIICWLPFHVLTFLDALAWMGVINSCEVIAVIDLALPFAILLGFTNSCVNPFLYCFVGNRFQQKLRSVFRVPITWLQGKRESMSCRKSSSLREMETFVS

Sequence of D(3) dopamine receptor (P35462 whole entry): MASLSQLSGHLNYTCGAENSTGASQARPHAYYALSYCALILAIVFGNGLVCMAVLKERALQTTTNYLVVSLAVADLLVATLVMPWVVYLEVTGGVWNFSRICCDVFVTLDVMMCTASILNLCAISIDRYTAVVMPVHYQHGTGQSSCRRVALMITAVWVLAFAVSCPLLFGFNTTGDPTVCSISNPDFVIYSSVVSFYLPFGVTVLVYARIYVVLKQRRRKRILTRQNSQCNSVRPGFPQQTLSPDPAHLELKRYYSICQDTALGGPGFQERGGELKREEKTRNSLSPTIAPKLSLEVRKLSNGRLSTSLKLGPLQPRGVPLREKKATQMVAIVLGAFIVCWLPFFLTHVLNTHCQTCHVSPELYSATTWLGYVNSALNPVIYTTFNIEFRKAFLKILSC
Sequence of 5-hydroxytryptamine receptor 6 (P50406 whole entry): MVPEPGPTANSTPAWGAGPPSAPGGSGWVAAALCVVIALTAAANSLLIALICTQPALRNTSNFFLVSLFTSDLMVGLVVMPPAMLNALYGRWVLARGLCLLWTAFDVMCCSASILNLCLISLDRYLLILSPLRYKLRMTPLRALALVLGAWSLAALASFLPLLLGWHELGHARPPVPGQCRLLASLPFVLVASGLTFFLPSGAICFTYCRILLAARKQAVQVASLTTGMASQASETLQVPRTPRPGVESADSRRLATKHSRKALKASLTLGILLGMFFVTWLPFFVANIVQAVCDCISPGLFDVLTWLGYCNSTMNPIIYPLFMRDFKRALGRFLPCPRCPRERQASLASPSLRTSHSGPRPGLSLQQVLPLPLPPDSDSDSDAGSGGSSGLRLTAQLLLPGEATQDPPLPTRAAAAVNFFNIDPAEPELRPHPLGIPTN
Sequence of Beta-3 adrenergic receptor (P13945 whole entry): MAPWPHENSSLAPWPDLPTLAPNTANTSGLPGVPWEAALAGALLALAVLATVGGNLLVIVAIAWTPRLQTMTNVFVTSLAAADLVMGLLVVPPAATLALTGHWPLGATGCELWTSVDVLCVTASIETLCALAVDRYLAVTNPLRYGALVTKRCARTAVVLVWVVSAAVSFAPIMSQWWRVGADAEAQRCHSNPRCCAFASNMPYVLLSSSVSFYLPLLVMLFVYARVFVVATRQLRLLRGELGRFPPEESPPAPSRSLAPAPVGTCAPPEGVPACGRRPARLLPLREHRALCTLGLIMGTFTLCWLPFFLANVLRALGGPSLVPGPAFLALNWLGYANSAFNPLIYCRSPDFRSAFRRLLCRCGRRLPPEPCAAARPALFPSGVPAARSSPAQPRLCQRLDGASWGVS

Row | Compound | IC50 ([1]; hela) | IC50 [2] | IC50 (D(3) dopamine receptor; cho) | IC50 [3] | IC50 [4] | Ki [4] | IC50 [5] | IC50 ([1]; read-out: IC50) [nM] | Ki ([1]; read-out: Ki) [nM] | IC50 (D(3) dopamine receptor; read-out: IC50) [nM] | Ki (D(3) dopamine receptor; read-out: Ki) [nM] | Ki ([1]; hela) | Ki [2] | Ki (D(3) dopamine receptor; cho) | Ki [3] | Ki [5]
1 | CC1Cc2ccccc2N1NC(=O)c1ccc(Cl)c(S(N)(=O)=O)c1 (stereo not drawn) [INDAPAMIDE] | Not Active | Not Active | Not Active | Not Active | Not Active | Not Active | Not Active |  |  |  |  |  |  |  |  | 
2 | Nc1nc(N)nc(-c2cc(Cl)ccc2Cl)n1.O=C(O)/C=C\C(=O)O [IRSOGLADINE MALEATE] | Not Active | Not Active | Not Active | Not Active | Not Active | Not Active | Not Active |  |  |  |  |  |  |  |  | 
3 | CCC(C)n1ncn(-c2ccc(N3CCN(c4ccc(OCC5COC(Cn6cncn6)(c6ccc(Cl)cc6Cl)O5)cc4)CC3)cc2)c1=O (stereo not drawn) [ITRACONAZOLE] | Not Active | Not Active | Not Active | Not Active | Not Active | Not Active | Not Active |  |  |  |  |  |  |  |  | 
4 | CCCCN1CCCC[C@H]1C(=O)Nc1c(C)cccc1C [LEVOBUPIVACAINE] | Not Active | Not Active | Not Active | Not Active | Not Active | Not Active | Not Active |  |  |  |  |  |  |  |  | 
5 | CCCCc1nc(Cl)c(CO)n1Cc1ccc(-c2ccccc2-c2nnn[nH]2)cc1 [LOSARTAN] | Not Active | Not Active | Not Active | Not Active | Not Active | Not Active | Not Active |  |  |  |  |  |  |  |  | 
6 | Sc1ncnc2nc[nH]c12 [MERCAPTOPURINE ANHYDROUS] | Not Active | Not Active | Not Active | Not Active | Not Active | Not Active | Not Active |  |  |  |  |  |  |  |  | 
7 | C[C@](N)(Cc1ccc(O)c(O)c1)C(=O)O [METHYLDOPA] | Not Active | Not Active | Not Active | Not Active | Not Active | Not Active | Not Active |  |  |  |  |  |  |  |  | 
8 | C[C@]12CCC(=O)C=C1CC[C@@H]1[C@@H]2CC[C@@]2(C)[C@H]1CC[C@]2(C)O [METHYLTESTOSTERONE] | Not Active | Not Active | Not Active | Not Active | Not Active | Not Active | Not Active |  |  |  |  |  |  |  |  | 
9 | Cc1ccccc1N1C(=O)c2cc(S(N)(=O)=O)c(Cl)cc2NC1C (stereo not drawn) [METOLAZONE] | Not Active | Not Active | Not Active | Not Active | Not Active | Not Active | Not Active |  |  |  |  |  |  |  |  | 
10 | CCn1cc(C(=O)O)c(=O)c2cc(F)c(N3CCNCC3)cc21 [NORFLOXACIN] | Not Active | Not Active | Not Active | Not Active | Not Active | Not Active | Not Active |  |  |  |  |  |  |  |  | 
11 | NC1=NC(=O)C(c2ccccc2)O1 (stereo not drawn) [PEMOLINE] | Not Active | Not Active | Not Active | Not Active | Not Active | Not Active | Not Active |  |  |  |  |  |  |  |  | 
12 | Nc1nc2c(ncn2CCC(CO)CO)c(=O)[nH]1 [PENCICLOVIR] | Not Active | Not Active | Not Active | Not Active | Not Active | Not Active | Not Active |  |  |  |  |  |  |  |  | 
13 | C=C(C)C1(O)OC(=O)C=C1OC (stereo not drawn) [PENICILLIC ACID] | Not Active | Not Active | Not Active | Not Active | Not Active | Not Active | Not Active |  |  |  |  |  |  |  |  | 
14 | CC1(C)S[C@@H]2[C@H](NC(=O)Cc3ccccc3)C(=O)N2[C@H]1C(=O)O [PENICILLIN G] | Not Active | Not Active | Not Active | Not Active | Not Active | Not Active | Not Active |  |  |  |  |  |  |  |  | 
15 | C1CCC(C(CC2CCCCN2)C2CCCCC2)CC1 (stereo not drawn) [PERHEXILINE] | Not Active | Not Active | Not Active | Not Active | Not Active | Not Active | Not Active |  |  |  |  |  |  |  |  | 
16 | CCOc1ccc(NC(C)=O)cc1 [PHENACETIN] | Not Active | Not Active | Not Active | Not Active | Not Active | Not Active | Not Active |  |  |  |  |  |  |  |  | 
17 | Cc1ccc(N(CC2=NCCN2)c2cccc(O)c2)cc1 [PHENTOLAMINE] | Not Active | Not Active | Not Active | Not Active | Not Active | Not Active | Not Active |  |  |  |  |  |  |  |  | 
18 | CNNCc1ccc(C(=O)NC(C)C)cc1 [PROCARBAZINE] | Not Active | Not Active | Not Active | Not Active | Not Active | Not Active | Not Active |  |  |  |  |  |  |  |  | 
19 | CN(C)CCCN1c2ccccc2Sc2ccccc21 [PROMAZINE] |  | Not Active |  | Not Active | Not Active | Not Active | Not Active | 274 | 127 | 205 | 69 |  |  |  |  | 
20 | CC(O)CO (stereo not drawn) [PROPYLENE GLYCOL] | Not Active | Not Active | Not Active | Not Active | Not Active | Not Active | Not Active |  |  |  |  |  |  |  |  | 
21 | CADMIUM ACETATE | Not Active | Not Active | Not Active | Not Active | Not Active | Not Active | Not Active |  |  |  |  | Not Active | Not Active | Not Active | Not Active | Not Active
22 | LEAD (II) ACETATE | Not Active | Not Active | Not Active | Not Active | Not Active | Not Active | Not Active |  |  |  |  | Not Active | Not Active | Not Active | Not Active | Not Active
23 | LIPOPOLYSACCHARIDE E. COLI O55:B5 | Not Active | Not Active | Not Active | Not Active | Not Active | Not Active | Not Active |  |  |  |  | Not Active | Not Active | Not Active | Not Active | Not Active
